Data reported in patent US20040029823A1, “Antisense oligonucleotide compositions and methods for the modulation of JNK proteins” (priority 1997, published 2004).
Strand notation (5' to 3'): a small letter for the sugar, then the base; units joined by * are phosphorothioate-linked, units joined directly phosphodiester-linked; [ ] holds rarer units or linkages, { } end groups; capitals alone tell only the bases. e = 2'-O-(2-methoxyethyl) (MOE); [5mC] = 5-methylcytosine; d = 2'-deoxy (DNA)

Legend:
rat JNK2 mRNA = experiment: Northern assay of rat JNK2 (p54a) mRNA in A10 aortic smooth muscle cells; assay type: cell-based; design: inhibition of rat JNK2 mRNA levels / % INHIBITION: concentration or dose not given beside the values; conditions: rat JNK2 (p54a) mRNA in A10 cells
Experimental: In order to study the role of JNK proteins in animal models, oligonucleotides targeted to the genes encoding JNK1, JNK2 and JNK3 of Rattus norvegicus were prepared. These oligonucleotides are 2′-methoxyethoxy, phosphodiester/2′-hydroxyl, phosphorothioate/2′-methoxyethoxy, phosphodiester “gapmers” in which every cytosine residue is 5-methylcytosine (m5c). These antisense compounds were synthesized according to the methods of the disclosure. Certain of these oligonucleotides are additionally specifically hybridizable to JNK genes from other species as indicated herein. The oligonucleotides described in this Example were tested for their ability to modulate rat JNK mRNA levels essentially according to the methods described in the preceding Examples, with the exceptions that the cell line used was rat A10 aortic smooth muscle cells (ATCC No. ATCC CRL-1476) and the probes used were specific for rat JNK1, JNK2 or JNK3 (see infra). A10 cells were grown and treated with oligonucleotides essentially as described by (Cioffi et al. Mol. Pharmacol., 1997, 51, 383).
These antisense compounds were tested for their ability to modulate levels of p54? (JNK1) and p54a (JNK2) mRNA in A10 cells via Northern assays. Due to the high degree of sequence identity between the human and rat genes, radiolabeled human JNK1 (Example 3) and JNK2 (Example 4) cDNAs functioned as specific probes for the rat homologs.
These antisense compounds were tested for their ability to modulate levels of p54a (JNK2) mRNA in A10 cells using the radiolabeled human JNK2 cDNA as a probe as described supra. Oligonucleotides showing levels of inhibition from ≧ about 60% to about 100% of rat JNK2 mRNA levels include ISIS Nos. 18254, 18255, 18257, 18258, 18259, 18260 and 18265 (SEQ ID NOS: 125, 126, 128, 129, 130, 131 and 136, respectively). These oligonucleotides are preferred embodiments of the invention for modulating rat JNK2 expression. […] These oligonucleotides are thus more preferred embodiments of the invention for modulating rat JNK2 expression. ISIS 18259 (SEQ ID NO: 130) was chosen for use in further studies (infra).

JNK2 mRNA = experiment: Northern assay of JNK2 mRNA expression in A549 cells; assay type: cell-based, human; conditions: for % EXPRESSION: relative to LIPOFECTIN-only control
Experimental: In order to evaluate the activity of potential JNK-modulating oligonucleotides, human lung carcinoma cell line A549 (American Type Culture Collection, Rockville, Md. No. ATCC CCL-185) cells or other cell lines as indicated in the Examples, were grown and treated with oligonucleotides or control solutions as detailed below. After harvesting, cellular extracts were prepared and examined for specific JNK mRNA levels or JNK protein levels (i.e., Northern or Western assays, respectively). In all cases, “% expression” refers to the amount of JNK-specific signal in an oligonucleotide-treated cell relative to an untreated cell (or a cell treated with a control solution that lacks oligonucleotide), and “% inhibition” is calculated as
100%−% Expression =% Inhibition.
Northern Assays: The mRNA expression of each JNK protein was determined by using a nucleic acid probe specifically hybridizable thereto. Nucleic acid probes specific for JNK1, JNK2 and JNK3 are described in Examples 3, 4 and 5, respectively. The probes were radiolabelled by means well known in the art (see, e.g., Short Protocols in Molecular Biology, 2nd Ed., Ausubel et al., Eds., John Wiley & Sons, New York, 1992, pages 3-11 to 2-3-44 and 4-17 to 4-18; Ruth, Chapter 6 In: Methods in Molecular Biology, Vol. 26: Protocols for Oligonucleotide Conjugates, Agrawal, ed., Humana Press Inc., Totowa, N.J., 1994, pages 167-185; and Chapter 10 In: Molecular Cloning: A Laboratory Manual, 2nd Ed., Sambrook et al., Eds., pages 10.1-10.70). The blots were stripped and reprobed with a ^32P-labeled glyceraldehyde 3-phosphate dehydrogenase (G3PDH) probe (Clontech Laboratories, Inc., Palo Alto, Calif.) in order to confirm equal loading of RNA and to allow the levels of JNK transcripts to be normalized with regard to the G3PDH signals.
A549 cells were grown in T-75 flasks until 80-90% confluent. At this time, the cells were washed twice with 10 mL of media (DMEM), followed by the addition of 5 mL of DMEM containing 20 μg/mL of LIPOFECTIN™ (i.e., 1:1 (w/w) DOTMA/DOPE, Life Technologies, Gaithersburg, Md.; DOTMA=N-[1-(2,3-dioleyoxy)propyl]-N,N,N-trimethylammonium chloride; DOPE=dioleoyl phosphatidylethanolamine). The oligonucleotides were added from a 10 μM stock solution to a final concentration of 400 nM, and the two solutions were mixed by swirling the flasks. As a control, cells were treated with LIPOFECTIN™ without oligonucleotide under the same conditions and for the same times as the oligonucleotide-treated samples. After 4 hours at 37° C., the medium was replaced with fresh DMEM containing 10% serum. The cells were allowed to recover for 18 hours. Total cellular RNA was then extracted in guanidinium, subject to gel electrophoresis and transferred to a filter according to techniques known in the art (see, e.g., Chapter 7 In: Molecular Cloning: A Laboratory Manual, 2nd Ed., Sambrook et al., Eds., pages 7.1-7.87, and Short Protocols in Molecular Biology, 2nd Ed., Ausubel et al., Eds., John Wiley & Sons, New York, 1992, pages 2-24 to 2-30 and 4-14 to 4-29). Filters were typically hybridized overnight to a probe specific for the particular JNK gene of interest in hybridization buffer (25 mM KPO4, pH 7.4; 5×SSC; 5× Denhardt's solution, 100 μg/ml Salmon sperm DNA and 50% formamide) (Alahari et al., Nucl. Acids Res., 1993, 21, 4079). This was followed by two washes with 1×SSC, 0.1% SDS and two washes with 0.25×SSC, 0.1% SDS. Hybridizing bands were visualized by exposure to X-OMAT AR film and quantitated using a PHOSPHORIMAGER™ essentially according to the manufacturer's instructions (Molecular Dynamics, Sunnyvale, Calif.)
B. JNK2-specific probes: In initial screenings of a set of oligonucleotides derived from the JNK2 sequence (Table 9) for biological activity, a cDNA clone of JNK2 (Kallunki et al., Genes & Development, 1994, 8, 2996) was radiolabeled and used as a JNK2-specific probe in Northern blots. […]

[1] = JNK2 mRNA time course, t=0 h after 4 hour treatment
[2] = JNK2 mRNA, A549 cells, 400 nM oligonucleotide
[3] = JNK2 mRNA, A549 cells, 400 nM oligonucleotide, 100% - % expression

## 10260 (antisense eAeTe[5mC]eTeG*d[5mC]*dG*dA*dG*dG*dT*dT*dT*d[5mC]*dA*eTe[5mC]eGeGe[5mC]) [compound 10260]
Rat JNK2 mRNA
  % INHIBITION: 59%
Rat JNK2 mRNA; relative to LIPOFECTIN-only control
  % EXPRESSION: 41%

## 12560 (antisense GTCCGGGCCAGGCCAAAGTC; DNA, all phosphorothioate, methylation of C not given here) [compound 12560]
JNK2 mRNA; JNK2 mRNA dose response, 50 nM
  Normalized % Control: 68.1%
JNK2 mRNA; JNK2 mRNA dose response, 100 nM
  Normalized % Control: 50.0%
JNK2 mRNA; JNK2 mRNA dose response, 200 nM
  Normalized % Control: 25.1%
JNK2 mRNA; JNK2 mRNA dose response, 400 nM
  Normalized % Control: 14.2%
JNK2 mRNA; [1]
  % INHIBITION: 79.8%
  Normalized % Control: 20.2%
JNK2 mRNA; JNK2 mRNA time course, t=4 h
  % INHIBITION: 88.9%
  Normalized % Control: 11.1%
JNK2 mRNA; JNK2 mRNA time course, t=12 h
  % INHIBITION: 78.2%
  Normalized % Control: 21.8%
JNK2 mRNA; JNK2 mRNA time course, t=48 h
  % INHIBITION: 57.3%
  Normalized % Control: 42.7%
JNK2 mRNA; JNK2 mRNA time course, t=72 h
  % INHIBITION: (0.0) %
  Normalized % Control: 116.8%
JNK2 mRNA; [2]
  % EXPRESSION: 11%
JNK2 mRNA; JNK2 mRNA, chemically modified oligonucleotides, dose 100 nM
  Normalized % Control: 62.1%
JNK2 mRNA; JNK2 mRNA, chemically modified oligonucleotides, dose 400 nM
  Normalized % Control: 31.4%

## 12561 (antisense dC*dA*dG*dG*dA*dT*dG*dA*dC*dT*dT*dC*dG*dG*dG*dC*dG*dC*dC*dC) [compound 12561]
JNK2 mRNA; [2]
  % EXPRESSION: 60%
JNK2 mRNA; [3]
  % INHIBITION: 40%

## 12562 (antisense dG*dC*dT*dC*dT*dC*dC*dC*dA*dT*dG*dA*dT*dG*dC*dA*dA*dC*dC*dC) [compound 12562]
JNK2 mRNA; [2]
  % EXPRESSION: 89%
JNK2 mRNA; [3]
  % INHIBITION: 11%

## 12563 (antisense dA*dT*dG*dG*dG*dT*dG*dA*dC*dG*dC*dA*dG*dA*dG*dC*dT*dT*dC*dG) [compound 12563]
JNK2 mRNA; [2]
  % EXPRESSION: 22%

## 12564 (antisense dC*dT*dG*dC*dT*dG*dC*dA*dT*dC*dT*dG*dA*dA*dG*dG*dC*dT*dG*dA) [compound 12564]
JNK2 mRNA; [2]
  % EXPRESSION: 28%

## 12565 (antisense dT*dG*dA*dG*dA*dA*dG*dG*dA*dG*dT*dG*dG*dC*dG*dT*dT*dG*dC*dT) [compound 12565]
JNK2 mRNA; [2]
  % EXPRESSION: 19%

## 12566 (antisense dT*dG*dC*dT*dG*dT*dC*dT*dG*dT*dG*dT*dC*dT*dG*dA*dG*dG*dC*dC) [compound 12566]
JNK2 mRNA; [2]
  % EXPRESSION: 42%

## 12568 (antisense dC*dA*dT*dT*dT*dC*dA*dG*dG*dC*dC*dC*dA*dC*dG*dG*dA*dG*dG*dT) [compound 12568]
JNK2 mRNA; [2]
  % EXPRESSION: 20%

## 12569 (antisense dG*dG*dT*dC*dT*dG*dA*dA*dT*dA*dG*dG*dG*dC*dA*dA*dG*dG*dC*dA) [compound 12569]
JNK2 mRNA; [2]
  % EXPRESSION: 13%
